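Values below derive from 48-hour exposures of cells grown in 96-well plates, with endpoints linearly interpolated between the two concentrations bracketing the appropriate inhibition level. TGI: concentration producing complete growth inhibition.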 Where only a bound is given, the exact number is not on record here.

For four compounds, TGI results are on record in PubChem BioAssay (NCI).

Some test systems named below: HCT-15 colon; A498 renal; CCRF-CEM leukemia; SF-295 CNS; ACHN renal; MDA-N; UO-31 renal; SNB-19 CNS; NCI-H460 lung; SN12C renal; PC-3 prostate.
What all share (assay): NCI-60 cell line screen, 48 h

Consider `O=c1oc2ccc3ccccc3c2cc1-c1nc2ccccc2s1`, for which the TGI in the experiment on HCT-15 colon, in the experiment with A498 renal, in the experiment on CCRF-CEM leukemia, in the experiment on SF-295 CNS, with ACHN renal and in the experiment with MDA-N was greater than 100 µM each time. In addition, the TGI with UO-31 renal is greater than 100 µM; in the experiment on SNB-19 CNS, greater than 26.9 µM; with NCI-H460 lung it was greater than 100 µM; in the experiment with SN12C renal, greater than 100 µM; with PC-3 prostate, greater than 100 µM.
Take `CC1=NN(c2nc(N)nc(/C(C#N)=C\c3ccc([N+](=O)[O-])s3)n2)C(C)(C)C1`: the TGI in the experiment on HCT-15 colon turned out to be 0.325 µM; in the experiment on A498 renal, 26.8 µM; in the experiment on CCRF-CEM leukemia it was 0.0942 µM; in the experiment with SF-295 CNS it was 23.1 µM; in the experiment on ACHN renal, 0.719 µM; with MDA-N, 2.6 µM. For the same compound, the TGI amounted to 0.278 µM with UO-31 renal; 5.97 µM in the experiment on SNB-19 CNS; 0.553 µM in the experiment with NCI-H460 lung; 1.51 µM in the experiment on SN12C renal; 0.429 µM in the experiment with PC-3 prostate.
Take `NC(N)=NS(=O)(=O)c1ccc(NNc2c3ccccc3nc3c(C(=O)Nc4ccc(S(=O)(=O)Nc5ncccn5)cc4)cccc23)cc1`: the TGI in the experiment on HCT-15 colon, in the experiment on A498 renal, with CCRF-CEM leukemia, in the experiment on SF-295 CNS, in the experiment on ACHN renal and in the experiment on MDA-N was greater than 100 µM in each case. For the same compound, the TGI with UO-31 renal was 83.7 µM; in the experiment on SNB-19 CNS it was greater than 100 µM; in the experiment with NCI-H460 lung, greater than 100 µM; with SN12C renal, greater than 100 µM; in the experiment on PC-3 prostate, greater than 100 µM.
As to `COc1cc(OC)c2nc(C)c(CCCl)c(Cl)c2c1`, the TGI in the experiment on HCT-15 colon, in the experiment with A498 renal, in the experiment with CCRF-CEM leukemia, with SF-295 CNS, with ACHN renal and with MDA-N was greater than 100 µM throughout. Also, the TGI with UO-31 renal, with SNB-19 CNS, in the experiment with NCI-H460 lung, in the experiment with SN12C renal and with PC-3 prostate was greater than 100 µM throughout.
